Reference: patent US7378385B2, “Role for GLP-1 to mediate responses to disparate stressors” (University of Cincinnati, priority 2002, dated 2008)
Where no end group is shown, it is not given here.

Legend:
[1] = system: HPA axis; experiment: Effect of central (intracerebroventricular) GLP-1 on the HPA axis, plasma ACTH and corticosterone by RIA; assay type: in vivo, rats
Procedure: Central GLP1 effects on the HPA axis were assayed as described in Kinzig et al. (2003) J. Neuroscience 21:6163-6170, herein incorporated by reference in its entirety). Ten male Long-Evans rats (275-350 gm) were housed individually in plastic tub cages with a 12 hour light/dark cycle. […] Catheters were made of sterile SILASTIC tubing, the distal end beveled, a small piece sterile suture tied at 4 cm from the distal end, and filled with heparinized saline. The catheter was attached to a 1 ml syringe filled with heparinized saline at the end that remained at the head. Under ketamine ([…], i.p.) and xylazine (1.5 mg/kg i.p.) anesthesia, the rat's abdomen and top of the head were shaved. A midline incision (approx. 8 cm in length) was made beginning at the sternum. An additional incision was made on the skull. The catheter was subcutaneously from the skull incision to the muscle wall lining the intraperitoneal cavity with a pair of straight hemostats. The muscle wall underlying the abdominal skin incision was opened. A small incision was made in the right muscle wall, through which the catheter was pulled into the intraperitoneal cavity. […] The vein was then punctured with a 21 gauge needle, and the catheter was quickly inserted to the 4 cm mark. Heparinized saline (0.5 ml) was slowly pushed through the inserted catheter. One suture was made in the dorsal muscle wall immediately to the right of the insertion site. […]
Ten days after surgery, cannula placement was verified by administering angiotensin II through the cannula (intracerebroventricular, (i3vt)). Catheter patency was also determined 10 days after surgery. […]
Plasma was extracted and subsequently assayed (RIA) for ACTH and corticosterone (CORT). Results from one such experiment are presented in FIG. 1, panels A and B. Results were analyzed by two-way ANOVA and Tukey's HSD test.
Plasma ACTH and corticosterone concentrations were determined using ^125I-labeled rat ACTH and corticosterone kits according to manufacturers' instructions. […]

[2] = system: HPA axis; experiment: Peripheral (intraperitoneal) GLP-1 effects on the HPA axis; assay type: in vivo, rats; settings: peripheral administration of GLP-1
Procedure: Plasma ACTH and corticosterone concentrations were determined using ^125I-labeled rat ACTH and corticosterone kits according to manufacturers' instructions. The limits of detection for each kit are 15 pg/ml and 8 ng/ml, respectively. For both ACTH and corticosterone assays, all plasma samples were run in duplicate in single assays.
An additional group of six rats was prepared as described in example 1 to test the effects of peripheral administration of GLP-1 on ACTH and corticosterone (CORT) release. Using a within-subjects design, rats were administered saline and 10, 100, and 500 μg/kg GLP-1 intraperitoneally. Each rat received each treatment in a randomized manner, with no less than 5 days between treatments.

[3] = system: mammalian central nervous system; experiment: Relative potency in the mammalian central nervous system; assay type: in vivo

| Substance | activation of the HPA axis, dose compared with dose required to decrease food intake ([1]; GLP-1 acting in the CNS) | activity of the HPA axis ([1]; central administration of GLP-1) | stress response ([1]; in vivo) | activity of the HPA axis [2] | potency relative to GLP-1(7-36) amide [3] |
| --- | --- | --- | --- | --- | --- |
| GLP-1: post-translational product of preproglucagon; ligand of the GLP-1 receptor (HAEGTFTSDVSSYLEGQAAKEFIAWLVKGR; ends and bridges not checked; UniProt P01275 98-127, looked up) | potent activation of the HPA axis at doses lower than that required to decrease food intake | excites the HPA axis | increases the stress response | does not |  |
| exendin 4: GLP-1 receptor agonist |  |  |  |  | at least 20 times |
